Results reported in EPA's ToxRefDB 2.

What was measured:
rat [1] = details: Sub-acute repeat dose toxicity, sprague dawley, Oral, Gavage/Intubation, dose end: 4 week, group: systemic
rat [2] = details: Prenatal developmental toxicity study, sprague dawley, Oral, Gavage/Intubation, dose end: 17 GD
dog [3] = details: Sub-acute repeat dose toxicity; beagle; Oral; Gavage/Intubation; dose end: 4 week; group: systemic; systemic / in life observation / clinical signs / abnormal feces
rat [4] = details: Prenatal developmental toxicity study, sprague dawley, Oral, Gavage/Intubation, dose end: 17 GD; remark: listed apart in the source
rabbit [5] = details: Prenatal developmental toxicity study, new zealand white, Oral, Gavage/Intubation, dose end: 19 GD
rat [6] = details: Fertility (Segment I), sprague dawley, Oral, Gavage/Intubation, dose end: 7 GD
rat [7] = details: Developmental neurotoxicity study, long evans, Oral, Gavage/Intubation, dose end: 110 PND, group: cannot be grouped
mouse [8] = details: Carcinogenicity, cd1, Oral, [Not Specified], dose end: 24 month, group: systemic
rat [9] = details: Prenatal developmental toxicity study, sprague dawley, Oral, Gavage/Intubation, dose end: 15 GD
rat [10] = details: Combined chronic toxicity/carcinogenicity, fischer, Oral, Feed, dose end: 24 month, group: systemic
rat [11] = details: Subchronic oral toxicity in rodents, fischer, Water, dose end: 13 week, group: systemic
dog [12] = details: Chronic toxicity; beagle; Oral; Feed; dose end: 12 month; group: systemic; systemic / pathology microscopic / kidney / adenoma
rat [13] = details: Combined chronic toxicity/carcinogenicity, other, Oral, Feed, dose end: 24 month, group: systemic
rat [14] = details: Multigenerational reproductive toxicity study, other, Oral, Feed, dose end: 2 generation
rabbit [15] = details: Prenatal developmental toxicity study, himalayan, Oral, Gavage/Intubation, dose end: 19 GD
dog [16] = details: Subchronic oral toxicity in nonrodent, beagle, Feed, dose end: 90 day, group: systemic, systemic / clinical chemistry / albumin / albumin + systemic / clinical chemistry / albumin-globulin ratio / albumin-globulin ratio + …
rat [17] = details: Subchronic oral toxicity in rodents, sprague dawley, Feed, dose end: 3 month, group: systemic
dog [18] = details: Chronic toxicity, beagle, Oral, Feed, dose end: 52 week, group: systemic
mouse [19] = details: Carcinogenicity, other, Oral, Feed, dose end: 18 month, group: systemic
rat [20] = details: Prenatal developmental toxicity study, sprague-dawley, Oral, Gavage/Intubation, dose end: 15 GD
[21] = systemic / clinical chemistry / cholesterol / cholesterol + systemic / pathology microscopic / kidney / karyomegaly + systemic / pathology …
[22] = systemic / pathology microscopic / kidney / karyomegaly + systemic / pathology microscopic / kidney / necrosis + systemic / pathology …
[23] = group: developmental, developmental / developmental malformation / bone / branched + developmental / developmental malformation / bone / full supernumerary + …
[24] = group: developmental, developmental / developmental malformation / bone / short + developmental / developmental malformation / bone / unossified + developmental…
[25] = group: maternal, systemic / in life observation / body weight / body weight + systemic / in life observation / body weight / body weight gain + systemic / in…
[26] = group: maternal, systemic / in life observation / food consumption / food consumption
[27] = group: developmental, developmental / developmental malformation / trunk / thoracogastroschisis + systemic / in life observation / body weight / fetal weight
[28] = group: developmental, systemic / in life observation / body weight / fetal weight
[29] = group: maternal, reproductive / reproductive performance / postimplantation loss / postimplantation loss + systemic / in life observation / body weight / …
[30] = group: maternal, systemic / in life observation / body weight / body weight gain + systemic / in life observation / clinical signs / defecation + systemic / …
[31] = group: maternal, reproductive / reproductive performance / estrous cycle / corpora lutea + reproductive / reproductive performance / implantations / …
[32] = group: parental, systemic / in life observation / body weight / body weight gain + systemic / in life observation / food consumption / food consumption
[33] = systemic / in life observation / body weight / body weight gain + systemic / in life observation / clinical signs / vaginal discharge + …
[34] = systemic / pathology gross / lung / nodule(s)
[35] = systemic / pathology microscopic / liver / hemangiosarcoma + systemic / pathology microscopic / lung / adenoma + systemic / pathology …
[36] = group: developmental, developmental / developmental malformation / bone / absent
[37] = group: maternal, systemic / in life observation / clinical signs / defecation (diarrhea) + systemic / in life observation / clinical signs / soft stools
[38] = systemic / pathology microscopic / adrenal gland / pheochromocytoma benign + systemic / pathology microscopic / adrenal gland / …
[39] = systemic / urinalysis / protein / protein + systemic / urinalysis / bilirubin / total bilirubin
[40] = systemic / urinalysis / protein / protein + systemic / urinalysis / bilirubin / total bilirubin + systemic / urinalysis / specific gravity/…
[41] = systemic / pathology microscopic / kidney / atrophy
[42] = systemic / pathology microscopic / kidney / atrophy + systemic / in life observation / body weight / body weight + systemic / in life …
[43] = group: offspring, systemic / in life observation / body weight / offspring (pup) weight + systemic / organ weight / spleen / absolute + systemic / organ …
[44] = group: parental, systemic / in life observation / body weight / body weight + systemic / in life observation / body weight / body weight gain + systemic / in…
[45] = group: developmental, developmental / developmental malformation / heart / misshapen
[46] = group: maternal, systemic / in life observation / clinical signs / hemorrhagic perineal discharge + systemic / in life observation / mortality / mortality
[47] = group: maternal, systemic / in life observation / clinical signs / hemorrhagic perineal discharge + systemic / in life observation / mortality / mortality + …
[48] = systemic / in life observation / body weight / body weight + systemic / in life observation / body weight / body weight gain
[49] = systemic / in life observation / body weight / body weight + systemic / in life observation / body weight / body weight gain + systemic / …
[50] = systemic / pathology gross / lung / foci + systemic / in life observation / body weight / body weight gain + systemic / pathology …
[51] = systemic / in life observation / body weight / body weight + systemic / in life observation / body weight / body weight gain + systemic / in…
[52] = group: developmental, developmental / developmental malformation / bone / unossified + developmental / developmental malformation / bone / [other]
[53] = group: developmental, developmental / developmental malformation / bone / unossified + developmental / developmental malformation / bone / [other] + developmental…
[54] = group: maternal, systemic / in life observation / body weight / body weight gain + systemic / in life observation / food consumption / food consumption

Compound: Cc1nc(-c2ccccn2)ncc1C(=O)Nn1cc(C)c2cc(F)ccc21
- LOAEL (rat [1]; [21]): 110 mg/kg/day
- NOAEL (rat [1]; [21]): 30 mg/kg/day
- LEL (rat [1]; [22]): 10 mg/kg/day
- NEL (rat [1]; [22]): < 10 mg/kg/day
- LOAEL (rat [2]; [23]): > 110 mg/kg/day
- NOAEL (rat [2]; [23]): ≥ 110 mg/kg/day
- LEL (rat [2]; [24]): 10 mg/kg/day
- NEL (rat [2]; [24]): < 10 mg/kg/day
- LOAEL (rat [2]; [25]): 110 mg/kg/day
- NEL (rat [2]; [25]): 10 mg/kg/day
- NOAEL (rat [2]; [25]): 30 mg/kg/day
- LEL (rat [2]; [26]): 30 mg/kg/day
- LEL (dog [3]): 100 mg/kg/day
- LOAEL (dog [3]): 100 mg/kg/day
- NEL (dog [3]): 30 mg/kg/day
- NOAEL (dog [3]): 30 mg/kg/day
- LOAEL (rat [4]; [27]): > 110 mg/kg/day
- NEL (rat [4]; [27]): 10 mg/kg/day
- NOAEL (rat [4]; [27]): ≥ 110 mg/kg/day
- LEL (rat [4]; [28]): 30 mg/kg/day
- LEL (rat [4]; [29]): 110 mg/kg/day
- LOAEL (rat [4]; [29]): > 110 mg/kg/day
- NEL (rat [4]; [29]): 30 mg/kg/day
- NOAEL (rat [4]; [29]): ≥ 110 mg/kg/day
- LEL (rabbit [5]; [28]): 500 mg/kg/day
- LOAEL (rabbit [5]; [28]): > 2000 mg/kg/day
- NEL (rabbit [5]; [28]): < 500 mg/kg/day
- NOAEL (rabbit [5]; [28]): ≥ 2000 mg/kg/day
- LEL (rabbit [5]; [30]): 500 mg/kg/day
- LOAEL (rabbit [5]; [30]): > 2000 mg/kg/day
- NEL (rabbit [5]; [30]): < 500 mg/kg/day
- NOAEL (rabbit [5]; [30]): ≥ 2000 mg/kg/day
- LEL (rat [6]; [31]): 110 mg/kg/day
- LOAEL (rat [6]; [31]): > 110 mg/kg/day
- NEL (rat [6]; [31]): 30 mg/kg/day
- NOAEL (rat [6]; [31]): ≥ 110 mg/kg/day
- LEL (rat [6]; group: parental, systemic / in life observation / body weight / body weight gain): 30 mg/kg/day
- LOAEL (rat [6]; [32]): > 110 mg/kg/day
- NEL (rat [6]; [32]): 10 mg/kg/day
- NOAEL (rat [6]; [32]): ≥ 110 mg/kg/day

Compound: CCC[CH2][Sn]([CH2]CCC)([CH2]CCC)[O][Sn]([CH2]CCC)([CH2]CCC)[CH2]CCC [Bis(tributyltin)oxide]
- NEL (rat [7]; developmental / developmental malformation / mouth / jaw / cleft palate + developmental / offspring survival late / [other] / [other] + …): 2.5 mg/kg/day
- LOAEL (rat [7]; [33]): > 16 mg/kg/day
- NOAEL (rat [7]; [33]): ≥ 16 mg/kg/day
- LEL (rat [7]; systemic / in life observation / body weight / offspring (pup) weight): 5 mg/kg/day

Compound: CN(C)NC(=O)CCC(=O)O [Daminozide]
- LEL (mouse [8]; [34]): 42 mg/kg/day
- NEL (mouse [8]; [34]): < 42 mg/kg/day
- LOAEL (mouse [8]; [35]): > 1410 mg/kg/day
- NOAEL (mouse [8]; [35]): ≥ 1410 mg/kg/day
- LEL (rat [9]; [36]): 1800 mg/kg/day
- LOAEL (rat [9]; [36]): 1800 mg/kg/day
- NEL (rat [9]; [36]): 390 mg/kg/day
- NOAEL (rat [9]; [36]): 390 mg/kg/day
- LEL (rat [9]; [37]): 1800 mg/kg/day
- LOAEL (rat [9]; [37]): 1800 mg/kg/day
- NEL (rat [9]; [37]): 390 mg/kg/day
- NOAEL (rat [9]; [37]): 390 mg/kg/day
- LOAEL (rat [10]; [38]): > 500 mg/kg/day
- NEL (rat [10]; [38]): 25 mg/kg/day
- NOAEL (rat [10]; [38]): ≥ 500 mg/kg/day
- LEL (rat [10]; systemic / pathology microscopic / adrenal gland / pheochromocytoma malignant): 250 mg/kg/day
- LEL (rat [11]; [39]): 2.01 mg/kg/day
- LOAEL (rat [11]; [39]): 2.01 mg/kg/day
- NEL (rat [11]; [40]): 0.8 mg/kg/day
- NOAEL (rat [11]; [40]): 0.8 mg/kg/day
- LEL (dog [12]): 188 mg/kg/day
- LOAEL (dog [12]): > 188 mg/kg/day
- NEL (dog [12]): 75 mg/kg/day
- NOAEL (dog [12]): ≥ 188 mg/kg/day

Compound: COc1cc(OC)nc(NC(=O)[N-]S(=O)(=O)c2ncccc2OCC(F)(F)F)n1.[Na+] [Trifloxysulfuron-sodium]
- LEL (rat [13]; [41]): 99.3 mg/kg/day
- LOAEL (rat [13]; [41]): 99.3 mg/kg/day
- NEL (rat [13]; [42]): 23.7 mg/kg/day
- NOAEL (rat [13]; [42]): 23.7 mg/kg/day
- LEL (rat [14]; [43]): 631 mg/kg/day
- LOAEL (rat [14]; [43]): 631 mg/kg/day
- NEL (rat [14]; [43]): 78.8 mg/kg/day
- NOAEL (rat [14]; [43]): 78.8 mg/kg/day
- LEL (rat [14]; [44]): 631 mg/kg/day
- LOAEL (rat [14]; [44]): 631 mg/kg/day
- NEL (rat [14]; [44]): 78.8 mg/kg/day
- NOAEL (rat [14]; [44]): 78.8 mg/kg/day
- LEL (rabbit [15]; [45]): 100 mg/kg/day
- LOAEL (rabbit [15]; [45]): 100 mg/kg/day
- NEL (rabbit [15]; [45]): 50 mg/kg/day
- NOAEL (rabbit [15]; [45]): 50 mg/kg/day
- LEL (rabbit [15]; [46]): 250 mg/kg/day
- LOAEL (rabbit [15]; [46]): 250 mg/kg/day
- NEL (rabbit [15]; [47]): 100 mg/kg/day
- NOAEL (rabbit [15]; [47]): 100 mg/kg/day
- LEL (dog [16]): 164 mg/kg/day
- LOAEL (dog [16]): 164 mg/kg/day
- NEL (dog [16]): 19.8 mg/kg/day
- NOAEL (dog [16]): 19.8 mg/kg/day
- LEL (rat [17]; systemic / clinical chemistry / cytochrome p450, nos / cytochrome p450, nos): 239 mg/kg/day
- LOAEL (rat [17]; [48]): 1050 mg/kg/day
- NEL (rat [17]; [49]): 65.7 mg/kg/day
- NOAEL (rat [17]; [49]): 507 mg/kg/day
- LEL (dog [18]; systemic / pathology gross / lung / foci): 15 mg/kg/day
- NEL (dog [18]; [50]): 6.51 mg/kg/day
- NOAEL (dog [18]; [50]): 51.1 mg/kg/day
- LOAEL (dog [18]; systemic / pathology gross / lung / foci + systemic / pathology microscopic / lung / thickened): 123 mg/kg/day
- LEL (mouse [19]; [48]): 24.1 mg/kg/day
- LOAEL (mouse [19]; [48]): 24.1 mg/kg/day
- NEL (mouse [19]; [51]): 5.76 mg/kg/day
- NOAEL (mouse [19]; [51]): 5.76 mg/kg/day
- LEL (rat [20]; [52]): 30 mg/kg/day
- NEL (rat [20]; [52]): < 30 mg/kg/day
- LOAEL (rat [20]; [53]): 1000 mg/kg/day
- NOAEL (rat [20]; [53]): 300 mg/kg/day
- LOAEL (rat [20]; [54]): 1000 mg/kg/day
- NEL (rat [20]; [54]): 30 mg/kg/day
- NOAEL (rat [20]; [54]): 300 mg/kg/day
- LEL (rat [20]; [26]): 300 mg/kg/day
